{
  "source": "patent US5099015A",
  "about": "“Trifluoromethyl 1-carba(1-dethia)cephems” (Eli Lilly and Company, priority 1991, dated 1992)",
  "experiment_in_all_cases": "Agar dilution antibacterial test (MIC)",
  "format_in_all_cases": "cell-based",
  "key": {"[1]": {"tested_on": "Acom AC12", "experimental": "(§1) Fresh overnight cultures of test bacteria were diluted to approximately 1x(10)4 cells/microliter and applied in one microliter volumes to the surfaces of the agar plates. The innoculated plates were incubated overnight at 35° C. in ambient air. Minimum inhibitory concentration (mic) endpoints were recorded as the lowest antibiotic concentrations in micrograms per milliliter that inhibited the development of visible growth on the plates. The following summarizes the results of such tests with the compounds of the examples listed above."}, "[2]": {"tested_on": "Citro CF17", "experimental": "as §1"}, "[3]": {"tested_on": "Enterobacter aerogenes C32", "experimental": "as §1"}, "[4]": {"tested_on": "Enterobacter aerogenes EB17", "experimental": "as §1"}, "[5]": {"tested_on": "Enterobacter cloacae 265A", "experimental": "as §1"}, "[6]": {"tested_on": "Enterobacter cloacae EB5", "experimental": "as §1"}, "[7]": {"tested_on": "Enterococcus faecalis 2041", "experimental": "as §1"}, "[8]": {"tested_on": "Enterococcus faecium X66", "experimental": "as §1"}, "[9]": {"tested_on": "Escherichia coli EC14", "experimental": "as §1"}, "[10]": {"tested_on": "Escherichia coli N10", "experimental": "as §1"}, "[11]": {"tested_on": "Escherichia coli TEM", "experimental": "as §1"}, "[12]": {"tested_on": "Haemophilus influenzae C.L.", "experimental": "as §1"}, "[13]": {"tested_on": "Klebsiella pneumoniae KAE", "experimental": "as §1"}, "[14]": {"tested_on": "Klebsiella pneumoniae X68", "experimental": "as §1"}, "[15]": {"tested_on": "Morg morg PR15", "experimental": "as §1"}, "[16]": {"tested_on": "Proteus incon PR33", "experimental": "as §1"}, "[17]": {"tested_on": "Proteus rett C24", "settings": "Proteus rett C24", "experimental": "as §1"}, "[18]": {"tested_on": "Salmonella 1335", "experimental": "as §1"}, "[19]": {"tested_on": "Salmonella X514", "experimental": "as §1"}, "[20]": {"tested_on": "Serratia SE3", "experimental": "as §1"}, "[21]": {"tested_on": "Serratia X99", "experimental": "as §1"}, "[22]": {"tested_on": "Shig sonn. N9", "experimental": "as §1"}, "[23]": {"tested_on": "Staphylococcus aureus NRRL X1.1", "experimental": "as §1"}, "[24]": {"tested_on": "Staphylococcus aureus S13E", "experimental": "as §1"}, "[25]": {"tested_on": "Staphylococcus aureus V41", "experimental": "as §1"}, "[26]": {"tested_on": "Staphylococcus aureus X400", "experimental": "as §1"}, "[27]": {"tested_on": "Staphylococcus epidermidis 222", "experimental": "as §1"}, "[28]": {"tested_on": "Staphylococcus epidermidis EPI270", "experimental": "as §1"}, "[29]": {"tested_on": "Haemophilus influenzae 76", "settings": "read-out: MIC", "experimental": "as §1"}, "[30]": {"tested_on": "Klebsiella pneumoniae X26", "settings": "read-out: MIC", "experimental": "as §1"}, "[31]": {"tested_on": "Staphylococcus pneumoniae Park 1", "settings": "PARK1, read-out: MIC", "experimental": "as §1"}, "[32]": {"tested_on": "Staphylococcus pyogenes C203", "settings": "read-out: MIC", "experimental": "as §1"}, "[33]": {"settings": "Klebsiella aerogenes, read-out: MIC"}},
  "note": "Where two headings read alike, the source gives them in different places.",
  "data": [
    {"smiles": "CON=C(C(=O)N[C@@H]1C(=O)N2C(C(=O)O)=C(C(F)(F)F)CC[C@H]12)c1csc(N)n1", "note": "[Compound 4, [7S,6R]-7-([2-Amino-4-thiazolyl(methoxyimino)acetyl]amido)-3-trifluoromethyl-1-carba(b 1-dethia)-3-cephem-4-carboxylic acid]", "values": [
      {"measurement": "MIC", "setting": "[1]", "value": 16, "unit": "µg/mL"},
      {"measurement": "MIC", "setting": "[2]", "value": 8, "unit": "µg/mL"},
      {"measurement": "MIC", "setting": "[3]", "value": ".25 µg/mL"},
      {"measurement": "MIC", "setting": "[4]", "value": ".125 µg/mL"},
      {"measurement": "MIC", "setting": "[5]", "value": 64, "unit": "µg/mL"},
      {"measurement": "MIC", "setting": "[6]", "value": ".25 µg/mL"},
      {"measurement": "MIC", "setting": "[7]", "value": 1, "unit": "µg/mL"},
      {"measurement": "MIC", "setting": "[8]", "value": "> 128", "unit": "µg/mL"},
      {"measurement": "MIC", "setting": "[9]", "value": ".03 µg/mL"},
      {"measurement": "MIC", "setting": "[10]", "value": ".06 µg/mL"},
      {"measurement": "MIC", "setting": "[11]", "value": ".125 µg/mL"},
      {"measurement": "MIC", "setting": "[12]", "value": ".015 µg/mL"},
      {"measurement": "MIC", "setting": "[13]", "value": 32, "unit": "µg/mL"},
      {"measurement": "MIC", "setting": "[14]", "value": ".015 µg/mL"},
      {"measurement": "MIC", "setting": "[15]", "value": 4, "unit": "µg/mL"},
      {"measurement": "MIC", "setting": "[16]", "value": ".125 µg/mL"},
      {"measurement": "MIC", "setting": "[17]", "value": 1, "unit": "µg/mL"},
      {"measurement": "MIC", "setting": "[18]", "value": ".06 µg/mL"},
      {"measurement": "MIC", "setting": "[19]", "value": ".015 µg/mL"},
      {"measurement": "MIC", "setting": "[20]", "value": 2, "unit": "µg/mL"},
      {"measurement": "MIC", "setting": "[21]", "value": ".5 µg/mL"},
      {"measurement": "MIC", "setting": "[22]", "value": ".06 µg/mL"},
      {"measurement": "MIC", "setting": "[23]", "value": 4, "unit": "µg/mL"},
      {"measurement": "MIC", "setting": "[24]", "value": 16, "unit": "µg/mL"},
      {"measurement": "MIC", "setting": "[25]", "value": 8, "unit": "µg/mL"},
      {"measurement": "MIC", "setting": "[26]", "value": 128, "unit": "µg/mL"},
      {"measurement": "MIC", "setting": "[27]", "value": 4, "unit": "µg/mL"},
      {"measurement": "MIC", "setting": "[28]", "value": 8, "unit": "µg/mL"}
    ]},
    {"smiles": "N[C@@H](C(=O)N[C@@H]1C(=O)N2C(C(=O)O)=C(C(F)(F)F)CC[C@H]12)c1cccc(F)c1", "note": "[Compound 8]", "values": [
      {"measurement": "MIC", "setting": "[2]; read-out: MIC", "value": 16, "unit": "µg/mL"},
      {"measurement": "MIC", "setting": "[3]; [33]", "value": 16, "unit": "µg/mL"},
      {"measurement": "MIC", "setting": "[4]; [33]", "value": 8, "unit": "µg/mL"},
      {"measurement": "MIC", "setting": "[5]; read-out: MIC", "value": 32, "unit": "µg/mL"},
      {"measurement": "MIC", "setting": "[6]; read-out: MIC", "value": 16, "unit": "µg/mL"},
      {"measurement": "MIC", "setting": "[7]; read-out: MIC", "value": 32, "unit": "µg/mL"},
      {"measurement": "MIC", "setting": "[8]; read-out: MIC", "value": 64, "unit": "µg/mL"},
      {"measurement": "MIC", "setting": "[9]; read-out: MIC", "value": 4, "unit": "µg/mL"},
      {"measurement": "MIC", "setting": "[10]; read-out: MIC", "value": 4, "unit": "µg/mL"},
      {"measurement": "MIC", "setting": "[11]; read-out: MIC", "value": 2, "unit": "µg/mL"},
      {"measurement": "MIC", "setting": "[29]", "value": 2, "unit": "µg/mL"},
      {"measurement": "MIC", "setting": "[12]; read-out: MIC", "value": 2, "unit": "µg/mL"},
      {"measurement": "MIC", "setting": "[13]; read-out: MIC", "value": 16, "unit": "µg/mL"},
      {"measurement": "MIC", "setting": "[30]", "value": 2, "unit": "µg/mL"},
      {"measurement": "MIC", "setting": "[14]; read-out: MIC", "value": 2, "unit": "µg/mL"},
      {"measurement": "MIC", "setting": "[15]; read-out: MIC", "value": 32, "unit": "µg/mL"},
      {"measurement": "MIC", "setting": "[16]; read-out: MIC", "value": 16, "unit": "µg/mL"},
      {"measurement": "MIC", "setting": "[17]; read-out: MIC", "value": 16, "unit": "µg/mL"},
      {"measurement": "MIC", "setting": "[18]; read-out: MIC", "value": 4, "unit": "µg/mL"},
      {"measurement": "MIC", "setting": "[19]; read-out: MIC", "value": 2, "unit": "µg/mL"},
      {"measurement": "MIC", "setting": "[20]; read-out: MIC", "value": 64, "unit": "µg/mL"},
      {"measurement": "MIC", "setting": "[21]; read-out: MIC", "value": 32, "unit": "µg/mL"},
      {"measurement": "MIC", "setting": "[22]; read-out: MIC", "value": 2, "unit": "µg/mL"},
      {"measurement": "MIC", "setting": "[23]; NRRLX1.1, read-out: MIC", "value": 2, "unit": "µg/mL"},
      {"measurement": "MIC", "setting": "[24]", "value": 32, "unit": "µg/mL"},
      {"measurement": "MIC", "setting": "[25]; read-out: MIC", "value": 16, "unit": "µg/mL"},
      {"measurement": "MIC", "setting": "[26]; read-out: MIC", "value": 64, "unit": "µg/mL"},
      {"measurement": "MIC", "setting": "[27]; read-out: MIC", "value": 4, "unit": "µg/mL"},
      {"measurement": "MIC", "setting": "[28]; read-out: MIC", "value": 4, "unit": "µg/mL"},
      {"measurement": "MIC", "setting": "[31]", "value": 0.25, "unit": "µg/mL"},
      {"measurement": "MIC", "setting": "[32]", "value": 0.06, "unit": "µg/mL"}
    ]}
  ]
}
